*1 amine or outer side, *2 acyl side, *3 side chain or, on linkers, in order; H or OH if unused. Where a SMILES comes first, the peptide text is derived from it. Bridges are numbered along the chain shown (N, C = ends). [ ]: non-standard residue; d: D form. ACHC(1S,2S) = O=C([C@H]1CCCC[C@@H]1N[*:1])[*:2]; X1 = O=C([C@@H]1CCC[C@@H]1N[*:1])[*:2]
Tests used:
SARS-CoV-2 M^pro [1] = molecular target: T1, SARS-CoV-2 M^pro (Severe acute respiratory syndrome coronavirus 2, UniProt P0DTD1); assay: biochemical; format: binding; conditions: for kon: read-out: ka (kinetic association)
T1 construct: also known as 3-chymotrypsin-like cysteine protease (3CL^pro) and nonstructural protein 5 (nsp5)

[2] = Serum stability assay in human serum, LC/MS; format: in vitro ADME; conditions: 37 °C, peptide 10 μM, up to 168 h, mean ± s.d. (n = 3), read-out: t1/2 in serum (converted)
Description: A synthetic macrocyclic peptide (10 μM) and a serum-resistant internal standard peptide consisting only of D-amino acids (NH2-PEG5-wstndwstnd-PEG5-CONH2, 5 μM) were mixed and incubated in human serum (Cosmo Bio, 12181201) at 37 °C for up to 168 h.[16] At each time point, 4 μL of the mixture was removed and quenched by adding 12 μL of methanol, followed by incubation on ice for 15 min. Following centrifugation (15,000 × g, 25 °C, 10 min), 10 μL of the supernatant was mixed with 40 μL of 1% (v/v) TFA in water. Following centrifugation (15,000 × g, 25 °C, 5 min), the supernatant was analyzed using LC/MS employing a reverse-phase column (ACQUITY UPLC BEH C18, 1.7 μm, 2.1 × 150 mm; Waters) and a Xevo G2-XS QTof system (Waters) with a linear gradient from 1% B to 61% B. Buffer A: water with 0.1% (v/v) formic acid; buffer B: acetonitrile with 0.1% (v/v) formic acid. The percentages of remaining peptides were determined by using the peak area integration of the chromatograms. The obtained LC/MS data were analyzed using a MassLynx 4.1 (Waters).

SARS-CoV-2 M^pro [3] = molecular target: T1, SARS-CoV-2 M^pro; assay: biochemical

| SMILES | Kd (SARS-CoV-2 M^pro [1]) [nM] | kon (SARS-CoV-2 M^pro [1]) [M⁻¹ s⁻¹] | half-life at 10 μM [2] [h] | IC50 (SARS-CoV-2 M^pro [3]) [nM] |
| --- | --- | --- | --- | --- |
| CC(C)C[C@@H]1NC(=O)[C@H]2CCCC[C@@H]2NC(=O)[C@H](CC(N)=O)NC(=O)[C@H](CC(=O)O)NC(=O)[C@H](Cc2ccc(O)cc2)NC(=O)[C@H](CCCNC(=N)N)NC(=O)[C@H](Cc2c[nH]cn2)NC(=O)[C@H](Cc2ccccc2)NC(=O)[C@@H](Cc2ccc(O)cc2)NC(=O)CSC[C@H](C(N)=O)NC(=O)[C@H](Cc2ccc(O)cc2)NC(=O)[C@H](C(C)C)NC1=O [BM3, ^AcyFHRYDNβ^2LVYc-NH2] ({CH2CO}-[dY]FHRYDN[ACHC(1S,2S)]LVY[dC]-NH2; thioether N-12) | 7.7 | 810000 | 48 | 40 |
| CC(C)C[C@@H]1NC(=O)[C@H](C)NC(=O)[C@H](CC(N)=O)NC(=O)[C@H](CC(=O)O)NC(=O)[C@H](Cc2ccc(O)cc2)NC(=O)[C@H](CCCNC(=N)N)NC(=O)[C@H](Cc2c[nH]cn2)NC(=O)[C@H](Cc2ccccc2)NC(=O)[C@@H](Cc2ccc(O)cc2)NC(=O)CSC[C@H](C(N)=O)NC(=O)[C@H](Cc2ccc(O)cc2)NC(=O)[C@H](C(C)C)NC1=O [BM3A, ^AcyFHRYDNA LVYc-NH2] ({CH2CO}-[dY]FHRYDNALVY[dC]-NH2; thioether N-12) | > 10000 |  | 4.6 | > 25000 |
| CC(C)C[C@@H]1NC(=O)[C@H](Cc2c[nH]cn2)NC(=O)[C@H](Cc2ccc(O)cc2)NC(=O)[C@@H]2CCC[C@@H]2NC(=O)[C@H](CC(=O)O)NC(=O)[C@H](Cc2ccccc2)NC(=O)[C@@H](Cc2ccc(O)cc2)NC(=O)CSC[C@H](C(N)=O)NC(=O)[C@H](CCCNC(=N)N)NC(=O)[C@@H]2CCC[C@@H]2NC(=O)[C@H](CC(N)=O)NC1=O [BM7, ^AcyFDβ^1YHLNβ^1Rc-NH2] ({CH2CO}-[dY]FD[X1]YHLN[X1]R[dC]-NH2; thioether N-11) | 9.6 | 170000 | > 168 | 20 |
| CC(C)C[C@@H]1NC(=O)[C@H](Cc2c[nH]cn2)NC(=O)[C@H](Cc2ccc(O)cc2)NC(=O)[C@H](C)NC(=O)[C@H](CC(=O)O)NC(=O)[C@H](Cc2ccccc2)NC(=O)[C@@H](Cc2ccc(O)cc2)NC(=O)CSC[C@H](C(N)=O)NC(=O)[C@H](CCCNC(=N)N)NC(=O)[C@H](C)NC(=O)[C@H](CC(N)=O)NC1=O [BM7A, ^AcyFDA YHLNA Rc-NH2] ({CH2CO}-[dY]FDAYHLNAR[dC]-NH2; thioether N-11) | > 10000 |  | 4.2 | > 25000 |
| CC(C)C[C@@H]1NC(=O)[C@@H](Cc2ccc(O)cc2)NC(=O)CSC[C@H](C(N)=O)NC(=O)[C@H](Cc2ccccc2)NC(=O)[C@H](Cc2c[nH]cn2)NC(=O)[C@@H]2CCCN2C(=O)[C@H](CC(N)=O)NC(=O)[C@@H]2CCC[C@@H]2NC(=O)[C@H]([C@@H](C)O)NC(=O)[C@H](Cc2c[nH]cn2)NC1=O [BM4, ^AcyLHTβ^1NPHFc-NH2] ({CH2CO}-[dY]LHT[X1]NPHF[dC]-NH2; thioether N-10) | 1200 | 1700 |  | > 8000 |
| CC(C)C[C@@H]1NC(=O)[C@H](CO)NC(=O)[C@H](CCCNC(=N)N)NC(=O)[C@H](Cc2ccccc2)NC(=O)[C@@H]2CCC[C@@H]2NC(=O)[C@H](Cc2c[nH]cn2)NC(=O)[C@H](Cc2ccccc2)NC(=O)[C@@H](Cc2ccc(O)cc2)NC(=O)CSC[C@H](C(N)=O)NC(=O)CNC(=O)[C@H](Cc2ccccc2)NC(=O)[C@H](C(C)C)NC(=O)[C@H](Cc2ccccc2)NC1=O [BM6, ^AcyFHβ^1FRSLFVFGc-NH2] ({CH2CO}-[dY]FH[X1]FRSLFVFG[dC]-NH2; thioether N-13) | 2.9 | 260000 |  | 2150 |
| CC(C)C[C@@H]1NC(=O)[C@H](CC(N)=O)NC(=O)[C@H](Cc2c[nH]cn2)NC(=O)[C@H](Cc2ccccc2)NC(=O)[C@@H]2CCC[C@@H]2NC(=O)[C@H](Cc2c[nH]cn2)NC(=O)[C@H](Cc2ccccc2)NC(=O)[C@@H](Cc2ccc(O)cc2)NC(=O)CSC[C@H](C(N)=O)NC(=O)[C@H](Cc2c[nH]cn2)NC(=O)[C@H](CC(C)C)NC(=O)[C@H](CCCNC(=N)N)NC(=O)[C@H](Cc2ccccc2)NC1=O [BM5, ^AcyFHβ^1FHNLFRLHc-NH2] ({CH2CO}-[dY]FH[X1]FHNLFRLH[dC]-NH2; thioether N-13) | 22 | 36000 |  | 360 |

— article PMC11141402, “Cyclic β^2,3-amino acids improve the serum stability of macrocyclic peptide inhibitors targeting the SARS-CoV-2 main protease” (Bulletin of the Chemical Society of Japan, 2024)
